The values that follow come from patent publication US11878970B2, “Allosteric chromenone inhibitors of phosphoinositide 3-kinase (PI3K) for the treatment of disease” (Petra Pharma Corporation, priority 2021, dated 2024).

What is called IC50 is the concentration needed to halve the response being measured.

Assay [1] deals with T1, PI3K-α (PIK3CA) wild-type (WT), p110α/p85α complex (Homo sapiens, UniProt P42336).
T1 construct: Recombinant, catalytically active human full length PIK3KA Wild-type and H1047R mutant; 6×His (N); purchased EMD Millipore Sigma 14-602M
The assay is described as follows: PI3K-alpha kinase (PIK3CA) biochemical activity, ADP-Glo, wild-type. Put shortly:
(§1)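 ADP formation measured by ADP-Glo luminescence after reaction at 27 °C to about 10% ATP turnover, using 20 uM ATP, 50 uM PIP2diC8 or soy PI lipid, HEPES pH 7.4 with MgCl2. Enzyme (1-5 nM WT or H1047R p110α/p85α) and compound preincubated 1 h first; 10-point 1:3 curves fitted four-parameter for IC50.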
For orientation: In ADP-Glo the light output rises with the ADP produced.

Assay [2] has as its target T2, PI3K-α (PIK3CA) H1047R mutant, p110α/p85α complex (Homo sapiens, UniProt P42336, H1047R).
T2 construct: Recombinant, catalytically active human full length PIK3KA Wild-type and H1047R mutant; 6×His (N); purchased EMD Millipore Sigma 14-792M
The assay is described as follows: PI3K-alpha kinase (PIK3CA) biochemical activity, ADP-Glo, H1047R mutant. Put shortly: as §1

Assay [3] concerns the target PI3K-α (PIK3CA) in MDA-MB-453 cells (Homo sapiens, UniProt P42336). The assay is described as follows: PI3K-alpha kinase (PIK3CA) in vitro cell based assay, MDA-MB-453 cells, SureFire Ultra AlphaLisa. The conditions noted are these: read-out: PI3K-α (PIK3CA) in vitro cell based assay IC50. Put shortly: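 Cells treated 3 h in serum-free MEM with 1 μg/mL insulin, 10-point 1:3 series in 0.3% DMSO, then lysed for SureFire Ultra AlphaLisa read-out. Inhibition normalized to DMSO (max) and 1 μM GDC-0032 (min); duplicate averages fitted by 4-parameter logistic for relative IC50.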

The mark [4] stands for this setting: PIP2diC8 lipid substrate (footnote 1).

T2 sequence (P42336 whole entry H1047R): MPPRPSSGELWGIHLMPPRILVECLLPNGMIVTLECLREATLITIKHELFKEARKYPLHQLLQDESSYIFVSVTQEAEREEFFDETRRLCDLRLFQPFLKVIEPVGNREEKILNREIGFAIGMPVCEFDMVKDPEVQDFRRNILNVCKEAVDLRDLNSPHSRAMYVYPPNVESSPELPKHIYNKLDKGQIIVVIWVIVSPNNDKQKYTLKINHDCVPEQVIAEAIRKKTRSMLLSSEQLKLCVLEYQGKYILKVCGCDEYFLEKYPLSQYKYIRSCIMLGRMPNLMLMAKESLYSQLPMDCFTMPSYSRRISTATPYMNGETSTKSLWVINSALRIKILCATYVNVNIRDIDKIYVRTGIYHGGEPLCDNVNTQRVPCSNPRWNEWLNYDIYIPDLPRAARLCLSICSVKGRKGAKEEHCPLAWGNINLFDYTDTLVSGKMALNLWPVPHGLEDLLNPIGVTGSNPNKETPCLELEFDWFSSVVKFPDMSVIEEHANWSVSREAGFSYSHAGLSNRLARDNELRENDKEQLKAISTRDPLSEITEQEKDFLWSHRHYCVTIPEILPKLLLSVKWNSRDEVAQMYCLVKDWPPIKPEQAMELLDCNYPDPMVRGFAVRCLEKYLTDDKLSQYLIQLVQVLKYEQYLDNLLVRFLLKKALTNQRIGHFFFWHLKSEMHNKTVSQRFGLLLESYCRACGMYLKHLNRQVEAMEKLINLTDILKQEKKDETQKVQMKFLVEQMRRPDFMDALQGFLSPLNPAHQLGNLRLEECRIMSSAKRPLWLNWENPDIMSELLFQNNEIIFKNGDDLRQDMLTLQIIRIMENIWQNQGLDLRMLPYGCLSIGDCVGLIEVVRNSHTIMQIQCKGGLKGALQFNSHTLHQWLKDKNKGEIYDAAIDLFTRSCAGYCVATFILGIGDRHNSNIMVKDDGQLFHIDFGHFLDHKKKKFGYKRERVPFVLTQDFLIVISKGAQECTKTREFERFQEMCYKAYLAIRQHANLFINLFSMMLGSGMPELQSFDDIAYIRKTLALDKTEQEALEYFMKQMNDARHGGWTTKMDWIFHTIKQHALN
T2 sequence (P27986 whole entry partner): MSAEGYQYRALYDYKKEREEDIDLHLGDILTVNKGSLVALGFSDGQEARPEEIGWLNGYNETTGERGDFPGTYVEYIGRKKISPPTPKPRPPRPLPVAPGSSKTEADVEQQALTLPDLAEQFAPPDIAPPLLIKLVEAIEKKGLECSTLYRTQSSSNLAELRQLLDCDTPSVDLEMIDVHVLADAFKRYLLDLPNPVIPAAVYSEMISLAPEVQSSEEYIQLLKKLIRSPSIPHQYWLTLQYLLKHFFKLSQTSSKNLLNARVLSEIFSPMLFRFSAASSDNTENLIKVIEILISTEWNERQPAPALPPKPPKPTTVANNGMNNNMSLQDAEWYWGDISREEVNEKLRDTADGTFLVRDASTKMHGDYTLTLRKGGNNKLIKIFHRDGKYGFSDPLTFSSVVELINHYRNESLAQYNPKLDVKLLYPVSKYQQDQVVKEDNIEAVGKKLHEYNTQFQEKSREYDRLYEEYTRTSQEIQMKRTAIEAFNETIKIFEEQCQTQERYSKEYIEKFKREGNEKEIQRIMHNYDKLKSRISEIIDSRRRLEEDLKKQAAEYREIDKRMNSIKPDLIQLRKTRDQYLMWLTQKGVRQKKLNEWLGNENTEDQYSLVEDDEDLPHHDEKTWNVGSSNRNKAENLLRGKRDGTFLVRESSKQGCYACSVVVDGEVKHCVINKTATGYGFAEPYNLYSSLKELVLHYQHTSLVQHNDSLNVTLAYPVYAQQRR
Sequence of PI3K-α (PIK3CA) in MDA-MB-453 cells (P27986 2-724): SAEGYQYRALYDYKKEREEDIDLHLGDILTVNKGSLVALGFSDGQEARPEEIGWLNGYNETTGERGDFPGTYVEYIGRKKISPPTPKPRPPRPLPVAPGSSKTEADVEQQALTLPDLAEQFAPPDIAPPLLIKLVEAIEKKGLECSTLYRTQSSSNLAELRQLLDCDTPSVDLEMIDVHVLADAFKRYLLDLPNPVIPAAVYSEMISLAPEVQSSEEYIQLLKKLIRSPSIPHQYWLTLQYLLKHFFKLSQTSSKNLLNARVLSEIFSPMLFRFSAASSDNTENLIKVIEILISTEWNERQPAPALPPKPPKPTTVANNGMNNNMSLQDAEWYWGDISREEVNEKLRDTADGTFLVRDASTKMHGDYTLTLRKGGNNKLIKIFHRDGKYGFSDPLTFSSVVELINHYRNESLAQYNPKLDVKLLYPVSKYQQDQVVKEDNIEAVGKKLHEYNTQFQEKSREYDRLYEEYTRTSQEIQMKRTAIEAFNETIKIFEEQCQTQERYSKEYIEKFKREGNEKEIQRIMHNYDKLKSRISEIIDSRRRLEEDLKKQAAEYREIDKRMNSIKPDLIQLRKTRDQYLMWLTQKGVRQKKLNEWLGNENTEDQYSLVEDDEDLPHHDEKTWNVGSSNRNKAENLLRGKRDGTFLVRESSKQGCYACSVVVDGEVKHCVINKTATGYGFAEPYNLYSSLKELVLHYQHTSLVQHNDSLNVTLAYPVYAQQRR
Sequence of PI3K-α (PIK3CA) in MDA-MB-453 cells (P42336 whole entry): as the sequence (P42336 whole entry H1047R) above, with R1047H counted along it

On to `Cc1cc([C@@H](C)Nc2ccc(C(F)(F)F)nc2C(=O)O)c2oc(-c3ccc4nc(C)sc4n3)c(C)c(=O)c2c1` [Example 233, 3-[[(1R)-1-[3,6-Dimethyl-2-(2-methylthiazolo[5,4-b]pyridin-5-yl)-4-oxo-chromen-8-yl]ethyl]amino]-6-(trifluoromethyl)pyridine-2-carboxylic acid], for which the half-inhibitory concentration (IC50) in assay [1] (Soy PI lipid substrate) is 1000 to 5000 nM; in assay [2] (Soy PI lipid substrate), below 500 nM; in assay [3] it was 100 to 500 nM.
On the same counts, the results for `Cc1cc(C(C)Nc2ccccc2C(=O)O)c2oc(-n3ncc4c(F)cccc43)cc(=O)c2c1` (single isomer, unassigned) [Example 86] are 500 to 1000 nM, below 500 nM and 50 to 100 nM.
On the same counts, the results for `Cc1cc([C@@H](C)Nc2cccc(F)c2C(=O)O)c2oc(-c3ccc4c(cnn4C)c3)cc(=O)c2c1` [Example 197, 2-Fluoro-6-[[(1R)-1-[6-methyl-2-(1-methylindazol-5-yl)-4-oxo-chromen-8-yl]ethyl]amino]benzoic acid] are 500 to 1000 nM, below 500 nM and below 50 nM.
On to `Cc1cc(C(C)Nc2ccccc2C(=O)O)c2oc(-c3ccc4cn[nH]c4c3)c(C)c(=O)c2c1` (single isomer, unassigned) [Example 120, 2-[1-[2-(1H-Indazol-6-yl)-3,6-dimethyl-4-oxo-chromen-8-yl]ethylamino]benzoic acid], for which the results for the IC50 in assay [1] (Soy PI lipid substrate), in assay [2] (Soy PI lipid substrate) and in assay [3] were 500 to 1000 nM, below 500 nM and below 50 nM, respectively.
`CC(Nc1ccccc1C(=O)O)c1cc(C(F)(F)F)cc2c(=O)cc(-c3ccc4c(cnn4C)c3)oc12` (single isomer, unassigned) [Example 109, 2-[1-[2-(1-Methylindazol-5-yl)-4-oxo-6-(trifluoromethyl)chromen-8-yl]ethylamino]benzoic acid]: the IC50 was 1000 to 5000 nM in assay [1] (Soy PI lipid substrate), below 500 nM in assay [2] (Soy PI lipid substrate) and below 50 nM in assay [3].
In the case of `Cc1cc(C(C)Nc2ccccc2C(=O)O)c2oc(-c3cc4ccncc4o3)cc(=O)c2c1` (stereo not drawn) [Example 7, 2-[1-(2-Furo[2,3-c]pyridin-2-yl-6-methyl-4-oxo-chromen-8-yl)ethylamino]benzoic acid], the 50% inhibitory concentration (IC50) in assay [1] (setting [4]) was below 500 nM; in assay [2] (setting [4]), below 500 nM; in assay [3], 50 to 100 nM.
`Cc1cc(C(C)Nc2ccccc2C(=O)O)c2oc(-c3ccc4c(cnn4C)c3)cc(=O)c2c1` (single isomer, unassigned) [Example 26, 2-[1-[6-Methyl-2-(1-methylindazol-5-yl)-4-oxo-chromen-8-yl]ethylamino]benzoic acid]: the IC50 is below 500 nM in assay [1] (Soy PI lipid substrate), below 500 nM in assay [2] (Soy PI lipid substrate) and below 50 nM in assay [3].
As to `Cc1cc([C@@H](C)Nc2cccnc2C(=O)O)c2oc(-c3cc(C)c4nn(C)cc4c3)cc(=O)c2c1` [Example 231, 3-[[(1R)-1-[2-(2,7-Dimethylindazol-5-yl)-6-methyl-4-oxo-chromen-8-yl]ethyl]amino]pyridine-2-carboxylic acid], the IC50 was above 10000 nM in assay [1] (Soy PI lipid substrate), 1000 to 5000 nM in assay [2] (Soy PI lipid substrate) and 100 to 500 nM in assay [3].
Take `Cc1cc([C@@H](C)Nc2ccc(Cl)cc2C(=O)O)c2oc(-c3ccc4nn(C)cc4c3)c(C)c(=O)c2c1` [Example 258, 5-Chloro-2-[[(1R)-1-[3,6-dimethyl-2-(2-methylindazol-5-yl)-4-oxo-chromen-8-yl]ethyl]amino]benzoic acid]: the IC50 in assay [1] (Soy PI lipid substrate) is 500 to 1000 nM; in assay [2] (Soy PI lipid substrate), below 500 nM; in assay [3] it was below 50 nM.
As to `Cc1cc([C@@H](C)Nc2cccc(F)c2C(=O)O)c2oc(-c3ccc4nc(C)cn4c3)cc(=O)c2c1` [Example 228, 2-Fluoro-6-[[(1R)-1-[6-methyl-2-(2-methylimidazo[1,2-a]pyridin-6-yl)-4-oxo-chromen-8-yl]ethyl]amino]benzoic acid], the 50% inhibitory concentration (IC50) in assay [1] (Soy PI lipid substrate) was 500 to 1000 nM; in assay [2] (Soy PI lipid substrate), below 500 nM; in assay [3], 100 to 500 nM.
As for `C[C@@H](Nc1ccc(Cl)nc1C(=O)O)c1cc(C(F)(F)F)cc2c(=O)cc(-c3ccc4nn(C)cc4c3)oc12` [Example 169, 6-Chloro-3-[[(1R)-1-[2-(2-methylindazol-5-yl)-4-oxo-6-(trifluoromethyl)chromen-8-yl]ethyl]amino]pyridine-2-carboxylic acid], the figures for the IC50 in assay [1] (Soy PI lipid substrate), in assay [2] (Soy PI lipid substrate) and in assay [3] were 500 to 1000 nM, below 500 nM and 50 to 100 nM, respectively.
`Cc1cc([C@@H](C)Nc2cccnc2C(=O)O)c2oc(-c3nn(C)c4ccccc34)cc(=O)c2c1` [Example 232, 3-[[(1R)-1-[6-Methyl-2-(1-methylindazol-3-yl)-4-oxo-chromen-8-yl]ethyl]amino]pyridine-2-carboxylic acid]: the IC50 in assay [1] (Soy PI lipid substrate) is above 10000 nM; in assay [2] (Soy PI lipid substrate), 500 to 1000 nM; in assay [3], 100 to 500 nM.
In the case of `Cc1cc([C@@H](C)Nc2ccccc2C(=O)O)c2oc(-c3ccc4nn(Cc5ccccc5)cc4c3)c(C)c(=O)c2c1` [Example 210, 2-[[(1R)-1-[2-(2-Benzylindazol-5-yl)-3,6-dimethyl-4-oxo-chromen-8-yl]ethyl]amino]benzoic acid], the results for the half-maximal inhibitory concentration (IC50) in assay [1] (Soy PI lipid substrate), in assay [2] (Soy PI lipid substrate) and in assay [3] were 500 to 1000 nM, below 500 nM and below 50 nM, respectively.
`Cc1cc(C(C)Nc2ccc(Cl)nc2C(=O)O)c2oc(-c3ccc4cc[nH]c4n3)cc(=O)c2c1` (single isomer, unassigned) [Example 216, 6-Chloro-3-[1-[6-methyl-4-oxo-2-(1H-pyrrolo[2,3-b]pyridin-6-yl)chromen-8-yl]ethylamino]pyridine-2-carboxylic acid]: the values for the half-maximal inhibitory concentration (IC50) in assay [1] (Soy PI lipid substrate), in assay [2] (Soy PI lipid substrate) and in assay [3] were above 10000 nM, 1000 to 5000 nM and above 500 nM, respectively.
For the compound `Cc1cc(C(C)Nc2ccccc2C(=O)O)c2oc(-c3ccc4[nH]ncc4c3)cc(=O)c2c1` (single isomer, unassigned) [Example 60, 2-[1-[2-(1H-Indazol-5-yl)-6-methyl-4-oxo-chromen-8-yl]ethylamino]benzoic acid], the IC50 in assay [1] (Soy PI lipid substrate) was 500 to 1000 nM; in assay [2] (Soy PI lipid substrate) it was below 500 nM; in assay [3], below 50 nM.
`Cc1cc(C(C)Nc2ccccc2C(=O)O)c2oc(-c3ccc4[nH]c(C)nc4c3)cc(=O)c2c1` (single isomer, unassigned) [Example 65, 2-[1-[6-Methyl-2-(2-methyl-1H-benzimidazol-5-yl)-4-oxo-chromen-8-yl]ethylamino]benzoic acid]: the 50% inhibitory concentration (IC50) is 1000 to 5000 nM in assay [1] (Soy PI lipid substrate), below 500 nM in assay [2] (Soy PI lipid substrate) and 100 to 500 nM in assay [3].
As for `Cc1cc(C(C)Nc2ccccc2C(=O)O)c2oc(-c3ccc4[nH]nc(C)c4c3)cc(=O)c2c1` (single isomer, unassigned) [Example 61, 2-[1-[6-Methyl-2-(3-methyl-1H-indazol-5-yl)-4-oxo-chromen-8-yl]ethylamino]benzoic acid], the IC50 in assay [1] (Soy PI lipid substrate) is 500 to 1000 nM; in assay [2] (Soy PI lipid substrate), below 500 nM; in assay [3] it was 50 to 100 nM.
For `Cc1cc(C(C)Nc2ccccc2C(=O)O)c2oc(-c3cnc4nn(C)cc4c3)cc(=O)c2c1` (stereo not drawn) [Example 9, 2-[1-[6-Methyl-2-(2-methylpyrazolo[3,4-b]pyridin-5-yl)-4-oxo-chromen-8-yl]ethylamino]benzoic acid], the IC50 in assay [1] (setting [4]) was 500 to 1000 nM; in assay [2] (setting [4]) it was below 500 nM; in assay [3], above 500 nM.
In the case of `Cc1cc(C(C)Nc2ccccc2C(=O)O)c2oc(-n3ncc4c(C)cccc43)cc(=O)c2c1` (single isomer, unassigned) [Example 88, 2-[1-[6-Methyl-2-(4-methylindazol-1-yl)-4-oxo-chromen-8-yl]ethylamino]benzoic acid], the IC50 in assay [1] (Soy PI lipid substrate) was 500 to 1000 nM; in assay [2] (Soy PI lipid substrate), below 500 nM; in assay [3], 100 to 500 nM.
Take `Cc1cc(C(C)Nc2ccccc2C(=O)O)c2oc(-c3cnc4c(c3)OCCO4)cc(=O)c2c1` (single isomer, unassigned) [Example 163, 2-[1-[2-(2,3-Dihydro-[1,4]dioxino[2,3-b]pyridin-7-yl)-6-methyl-4-oxo-chromen-8-yl]ethylamino]benzoic acid]: the 50% inhibitory concentration (IC50) in assay [1] (Soy PI lipid substrate) is 5000 to 10000 nM; in assay [2] (Soy PI lipid substrate) it was below 500 nM; in assay [3], 50 to 100 nM.
The corresponding values for `Cc1cc([C@@H](C)Nc2cccc(F)c2C(=O)O)c2oc(-c3ccc4nn(C)cc4c3)c(C)c(=O)c2c1` [Example 227, 2-[[(1R)-1-[3,6-Dimethyl-2-(2-methylindazol-5-yl)-4-oxo-chromen-8-yl]ethyl]amino]-6-fluoro-benzoic acid] are 500 to 1000 nM, below 500 nM and below 50 nM.
Regarding `COc1ccc2cc(-c3cc(=O)c4cc(C)cc([C@@H](C)Nc5ccccc5C(=O)O)c4o3)ccc2n1` [Example 249, 2-[[(1R)-1-[2-(2-Methoxy-6-quinolyl)-6-methyl-4-oxo-chromen-8-yl]ethyl]amino]benzoic acid], the values for the IC50 in assay [1] (Soy PI lipid substrate), in assay [2] (Soy PI lipid substrate) and in assay [3] were 1000 to 5000 nM, below 500 nM and 50 to 100 nM, respectively.
For `Cc1cc([C@@H](C)Nc2cccnc2C(=O)O)c2oc(-c3ccc4nn(C)cc4c3)cc(=O)c2c1` [Example 226, 3-[[(1R)-1-[6-Methyl-2-(2-methylindazol-5-yl)-4-oxo-chromen-8-yl]ethyl]amino]pyridine-2-carboxylic acid], the IC50 was in the range of 1000 to 5000 nM in assay [1] (Soy PI lipid substrate), 500 to 1000 nM in assay [2] (Soy PI lipid substrate) and 100 to 500 nM in assay [3].
